Common to all, as to experiment: relative viability (nuclei count vs DMSO), 5 days (fraction); higher = more cells survive
Compound in assay [1]: Cc1ccc2nc(NCCN)c3ncc(C)n3c2c1 + CC(=O)Nc1cccc(-n2c(=O)n(C3CC3)c(=O)c3c(Nc4ccc(I)cc4F)n(C)c(=O)c(C)c32)c1 [Trametinib] (partner 0.02 µM)
An outline of the steps: (§1)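 One day after seeding in 1536-well plates, lung cancer cell lines were dosed by pin tool. Dosing was either single-drug or a fixed anchor-drug dose plus five library-drug doses (not always all listed) in √10 steps. After 5 days, nuclei were stained in one fix-and-stain step and counted on 4× images, and relative viability is the nuclei count of treated wells over that of vehicle wells, given as the median of duplicate plates.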

Compound in assay [2]: Cc1ccc2nc(NCCN)c3ncc(C)n3c2c1 + Nc1ncn([C@H]2C[C@H](O)[C@@H](CO)O2)c(=O)n1 [Decitabine] (partner 2 µM)
An outline of the steps: as §1

Compound in the assay “Salubrinal + Crizotinib”: O=C(/C=C/c1ccccc1)NC(NC(=S)Nc1cccc2cccnc12)C(Cl)(Cl)Cl [Salubrinal] + C[C@@H](Oc1cc(-c2cnn(C3CCNCC3)c2)cnc1N)c1c(Cl)ccc(F)c1Cl [Crizotinib] (partner 1 µM)
Put shortly:
as §1

Compound in the assay “Salubrinal + Alpelisib”: O=C(/C=C/c1ccccc1)NC(NC(=S)Nc1cccc2cccnc12)C(Cl)(Cl)Cl [Salubrinal] + Cc1nc(NC(=O)N2CCC[C@H]2C(N)=O)sc1-c1ccnc(C(C)(C)C(F)(F)F)c1 [Alpelisib] (partner 2 µM)
Put shortly:
as §1

On to UMC-11, for which the relative viability in assay [1] (first compound 0.04 µM) amounted to 0.707; in assay [1] (first compound 0.1265 µM), 0.7; in assay [1] (first compound 0.4 µM), 0.72; in assay [1] (first compound 1.265 µM) it was 0.703; in assay [1] (first compound 4 µM) it was 0.632; in assay [2] (first compound 0.04 µM), 0.606. Moreover, the relative viability in assay [2] (first compound 0.1265 µM) was determined as 0.432; in assay [2] (first compound 0.4 µM) it was 0.59; in assay [2] (first compound 1.265 µM) it was 0.679; in assay [2] (first compound 4 µM), 0.624; with Salubrinal + Crizotinib (first compound 0.08 µM), 0.577; in the assay with Salubrinal + Crizotinib (first compound 0.253 µM) it was 0.54. Besides, the relative viability is 0.586 in the assay with Salubrinal + Crizotinib (first compound 0.8 µM); 0.578 in the assay with Salubrinal + Crizotinib (first compound 2.53 µM); 0.599 with Salubrinal + Crizotinib (first compound 8 µM); 1.29 in the assay with Salubrinal + Alpelisib (first compound 0.08 µM); 0.782 with Salubrinal + Alpelisib (first compound 0.253 µM); 1.11 with Salubrinal + Alpelisib (first compound 0.8 µM). The relative viability with Salubrinal + Alpelisib (first compound 2.53 µM) was 0.963; with Salubrinal + Alpelisib (first compound 8 µM), 0.89.
